Data: patent US12612371B2, “Sigma-1 receptor ligands and therapeutic uses thereof” (UNIVERSITE DE STRASBOURG, priority 2019, dated 2026)

Target: T1, sigma 1 (h) (Homo sapiens, UniProt Q99720)
T1 construct: incubating Jurkat cell membranes (10-20 mg protein per tube) with [^3H](+) pentazocine; endogenous in cells; host or cells: Jurkat cell membranes
Assay: σ1 binding assay ([3H](+)pentazocine displacement, Jurkat cell membranes)
Conditions: [3H](+)pentazocine 15 nM, 37° C., 2 hours; for inhibition at 0.01 µM: compound at 10 nM, read-out: Sigma-1 receptor % inhibition 10 nM; for inhibition at 0.1 µM: compound at 100 nM, read-out: Sigma-1 receptor % inhibition 100 nM
Description: The σ1 binding assays were performed according to Ganapathy et al (Ganapathy, M. E. et al. (1999), J. Pharmacol. Exp. Ther., 28:251-260). The σ1 binding assay was carried out by incubating Jurkat cell membranes (10-20 mg protein per tube) with [^3H](+) pentazocine a selective S1R ligand (15 nM) and a range of concentration of tested compounds, at 37° C. for 2 hours in 5 mM tris/HCl buffer (pH=7.4). The inhibition of [3H]-(+)-pentazocine binding assay is mainly used to determine the inhibition constant (Ki) of potential SIR ligands. These assays are performed with a single concentration of [^3H]-(+)-pentazocine at a concentration near its KD and increasing concentrations of non-radioactive ligands.

T1 sequence (Q99720 whole entry): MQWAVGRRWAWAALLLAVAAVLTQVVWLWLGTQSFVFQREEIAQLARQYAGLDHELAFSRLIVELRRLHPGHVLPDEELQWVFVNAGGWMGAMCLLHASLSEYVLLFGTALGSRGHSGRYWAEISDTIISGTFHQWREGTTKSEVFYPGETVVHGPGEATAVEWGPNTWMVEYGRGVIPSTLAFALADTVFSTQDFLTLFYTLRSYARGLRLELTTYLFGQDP

Row | inhibition at 0.01 µM [%] | inhibition at 0.1 µM [%] | Compound
1 | 61.5 | – | CN(CCCn1nccc(-c2ccccc2)c1=O)Cc1ccccc1 [9a, 2-(3-(benzyl(methyl)amino)propyl)-4-phenylpyridazin-3(2H)-one]
2 | 47.4 | – | O=c1c(-c2ccccc2)ccnn1CCCN1CCCCCC1 [9b, 2-(3-(azepan-1-yl)propyl)-4-phenylpyridazin-3(2H)-one]
3 | 7.6 | – | O=c1c(-c2ccccc2)ccnn1CCCN1CCOCC1 [9c, 2-[3-(morpholin-4-yl)propyl]-4-phenyl-2,3-dihydropyridazin-3-one]
4 | 87.5 | – | CN(CCCCn1nccc(-c2ccccc2)c1=O)Cc1ccccc1 [10a, 2-(4-(benzyl(methyl)amino)butyl)-4-phenylpyridazin-3(2H)-one]
5 | 14.5 | – | O=c1c(-c2ccccc2)ccnn1CCCCN1CCOCC1 [10b, 2-(4-morpholinobutyl)-4-phenylpyridazin-3(2H)-one]
6 | 40.3 | 80.3 | O=c1c(-c2ccccc2)ccnn1CCCCN1CCCOCC1 [10c, 2-(4-(1,4-oxazepan-4-yl)butyl)-4-phenylpyridazin-3(2H)-one]
7 | 28.3 | – | O=c1c(-c2ccccc2)ccnn1CCCCN1CCCCC1 [10d, 4-phenyl-2-(4-(piperidin-1-yl)butyl)pyridazin-3(2H)-one]
8 | 30.2 | – | O=c1c(-c2ccccc2)ccnn1CCCCN1CCCCCC1 [10e, 2-(4-(azepan-1-yl)butyl)-4-phenylpyridazin-3(2H)-one]
9 | 70 | – | O=c1c(-c2ccccc2)ccnn1CCCCN1CCCCCCC1 [10f, 2-(4-(azocan-1-yl)butyl)-4-phenylpyridazin-3(2H)-one]
10 | 73.5 | – | O=c1c(-c2ccccc2)ccnn1CCCCN1CCc2ccccc2C1 [10g, 2-(4-(3,4-dihydroisoquinolin-2(1H)-yl)butyl)-4-phenylpyridazin-3(2H)-one]
11 | 70.8 | – | O=c1c(-c2ccccc2)ccnn1CCCCN1CCc2ccccc2CC1 [10h, 4-phenyl-2-(4-(1,2,4,5-tetrahydro-3H-benzo[d]azepin-3-yl)butyl)pyridazin-3(2H)-one]
12 | 37.1 | – | O=c1c(-c2ccccc2)ccnn1CCCCNC12CC3CC(CC(C3)C1)C2 [10i, 2-(4-(adamantan-1-ylamino)butyl)-4-phenylpyridazin-3(2H)-one]
13 | 4.9 | – | CN(CCCCn1nccc(-c2ccccc2)c1=O)C12CC3CC(CC(C3)C1)C2 [10j, 2-(4-(adamantan-1-yl(methyl)amino)butyl)-4-phenylpyridazin-3(2H)-one]
14 | 3.7 | – | CC1(C)CC2CC(C)(CN2CCCCn2nccc(-c3ccccc3)c2=O)C1 (stereo not drawn) [10k, 4-phenyl-2-(4-(1,3,3-trimethyl-6-azabicyclo[3.2.1]octan-6-yl)butyl)pyridazin-3(2H)-one]
15 | 28.8 | – | O=c1c(-c2ccccc2)ccnn1CCCCN(Cc1ccccc1)CC1CCCO1 (stereo not drawn) [10m, 2-(4-(benzyl((tetrahydrofuran-2-yl)methyl)amino)butyl)-4-phenylpyridazin-3(2H)-one]
16 | 25.6 | 68.3 | COCC(c1ccccc1)N(C)CCCCn1nccc(-c2ccccc2)c1=O (stereo not drawn) [10o, 2-(4-((2-methoxy-1-phenylethyl)(methyl)amino)butyl)-4-phenylpyridazin-3(2H)-one]
17 | – | 9.7 | CN(CCO)CCCCn1nccc(-c2ccccc2)c1=O [10p, 2-(4-((2-hydroxyethyl)(methyl)amino)butyl)-4-phenylpyridazin-3(2H)-one]
18 | 29.4 | 79.6 | CN(CCCCn1nccc(-c2ccccc2)c1=O)CC1CCOCC1 [10q, 2-(4-(methyl((tetrahydro-2H-pyran-4-yl)methyl)amino)butyl)-4-phenylpyridazin-3(2H)-one]

Row | inhibition at 0.01 µM [%] | inhibition at 0.1 µM [%] | Compound
19 | 78.7 | 92.1 | O=c1c(-c2ccccc2)ccnn1CCCCN1CCCC(c2ccccc2)C1 (stereo not drawn) [10r, 4-phenyl-2-(4-(3-phenylpiperidin-1-yl)butyl)pyridazin-3(2H)-one]
20 | 64.6 | – | O=c1c(-c2ccccc2)ccnn1CCCCN1CCC(c2ccccc2)CC1 [10s, 4-phenyl-2-(4-(4-phenylpiperidin-1-yl)butyl)pyridazin-3(2H)-one]
21 | 9.7 | 38.2 | O=c1c(-c2ccccc2)ccnn1CCCCN1CCCC(CO)C1 (stereo not drawn) [10t, 2-(4-(3-(hydroxymethyl)piperidin-1-yl)butyl)-4-phenylpyridazin-3(2H)-one]
22 | – | 26.5 | O=c1c(-c2ccccc2)ccnn1CCCCN1CCCCC1CCO (stereo not drawn) [10u, 2-(4-(2-(2-hydroxyethyl)piperidin-1-yl)butyl)-4-phenylpyridazin-3(2H)-one]
23 | 37.6 | 79.4 | O=c1c(-c2ccccc2)ccnn1CCCCN1CCOC(c2ccccc2)C1 (stereo not drawn) [10w, 4-phenyl-2-(4-(2-phenylmorpholino)butyl)pyridazin-3(2H)-one]
24 | 34.6 | 76.2 | CC1CN(CCCCn2nccc(-c3ccccc3)c2=O)CC(C)O1 (stereo not drawn) [10x, 2-(4-(2,6-dimethylmorpholino)butyl)-4-phenylpyridazin-3(2H)-one]
25 | 64.2 | – | O=c1c(-c2ccccc2)ccnn1CCCCN1CCN(Cc2ccccc2)CC1 [10z, 2-[4-(4-benzylpiperazin-1-yl)butyl]-4-phenyl-2,3-dihydropyridazin-3-one]
26 | 83.4 | – | O=c1c(-c2ccccc2)ccnn1CCCCN1CCC(Cc2ccccc2)CC1 [11a, 2-[4-(4-benzylpiperidin-1-yl)butyl]-4-phenyl-2,3-dihydropyridazin-3-one]
27 | 73.9 | – | CCN(CCCCn1nccc(-c2ccccc2)c1=O)Cc1ccccc1 [11b, 2-{4-[benzyl(ethyl)amino]butyl}-4-phenyl-2,3-dihydropyridazin-3-one]
28 | 16.1 | – | O=c1c(-c2ccccc2)ccnn1CCCCN1CCN(c2ccccc2)CC1 [11d, 4-phenyl-2-[4-(4-phenylpiperazin-1-yl)butyl]-2,3-dihydropyridazin-3-one]
29 | 7.4 | – | O=c1c(-c2ccccc2)ccnn1CCCCN1CCC[C@H]2CCCC[C@@H]21 [11e, 2-{4-[(4aR,8aS)-decahydroquinolin-1-yl]butyl}-4-phenyl-2,3-dihydropyridazin-3-one]
30 | 12 | – | O=c1c(-c2ccc(F)cc2)ccnn1CCCCN1CCOCC1 [11h, 4-(4-fluorophenyl)-2-(4-morpholinobutyl)pyridazin-3(2H)-one]
31 | 1.9 | – | O=c1c(-c2ccc(Cl)cc2)ccnn1CCCCN1CCOCC1 [11k, 4-(4-chlorophenyl)-2-[4-(morpholin-4-yl)butyl]-2,3-dihydropyridazin-3-one]
32 | 69.1 | – | O=c1c(-c2cccc(Cl)c2)ccnn1CCCCN1CCOCC1 [11l, 4-(3-chlorophenyl)-2-[4-(morpholin-4-yl)butyl]-2,3-dihydropyridazin-3-one]
33 | 5.04 | – | O=c1c(-c2ccccc2Cl)ccnn1CCCCN1CCOCC1 [11m, 4-(2-chlorophenyl)-2-[4-(morpholin-4-yl)butyl]-2,3-dihydropyridazin-3-one]
34 | 6.13 | – | O=c1c(-c2ccc(C(F)(F)F)cc2)ccnn1CCCCN1CCOCC1 [11n, 2-[4-(morpholin-4-yl)butyl]-4-[4-(trifluoromethyl)phenyl]-2,3-dihydropyridazin-3-one]
35 | 33.4 | – | O=c1c(-c2ccsc2)ccnn1CCCCN1CCOCC1 [11o, 2-[4-(morpholin-4-yl)butyl]-4-(thiophen-3-yl)-2,3-dihydropyridazin-3-one]
